Columns and labels:
NFκB transactivation [1] = assay: κB-luciferase reporter assay (TNF-α induced); type: cell-based; conditions: 10 nM triptolide+TNF-α, after 24 hours
adult animal = assay: Tolerability in adult animal; type: in vivo
From the text: Since ADPKD has no proven therapeutic cure or treatment, Applicants believe it is encouraging as a preliminary step to observe triptolide-mediated growth arrest and attenuation of cyst progression. […] In summary, Applicants have established a novel pathway for triptolide mediated calcium release in a polycystin-2 dependent pathway that can reduce cystic burden in the kidneys of PKD mice. It is hopeful therefore that if fully developed, triptolide would be an ideal candidate for drug therapy as its history as an herbal therapy has already shown it to be well tolerated in humans.

NFκB transactivation [2] = assay: κB-luciferase reporter assay (TNF-α induced); type: cell-based
Procedure: Having established that triptolide induced cell death is dependent upon free calcium concentration, Applicants next determined if this was also a requirement for the inhibition of NFκB transcription. HeLa cells were transiently transfected with the κB-luciferase reporter construct for 8 hours before being washed and then cultured in the presence or absence of calcium containing medium for 16 hours. Triptolide (100 nM) was pre-incubated with cells for 1 hour before addition of 15 ng/ml of TNF-α for 4 hours.
As an additional experiment, transcriptional activity was also assessed by site-directed calcium buffering. HeLa cells were co-transfected with the κB-luciferase plasmid as well as one of the following constructs: GFP empty vector, NES-PV-GFP, or NLS-PV-GFP and proper GFP localization was confirmed. Cells were grown in the presence of calcium for 24 hours before the addition of 100 nM triptolide and 15 ng/ml TNF-α.
NFκB transactivation was examined using the κb-luciferase reporter construct. HeLa cells were transiently transfected and pre-treated with 0-100 nM triptolide for one hour prior to TNF-α addition. Cells were assessed for NFκB driven luciferase expression after an additional five hours of incubation, at which time TNF-α had induced transcriptional activity by approximately 15-fold in control cells. […] The results thus far support a divergence of triptolide-mediated functions: the pathway regulating growth arrest/death is more sensitive to triptolide and calcium than the mechanism leading to transcriptional repression of NFκB.
Based upon Applicants' studies examining the concentration dependent effect of triptolide on the two measured biological endpoints, cell death and transcriptional repression, Applicants wanted to determine how modulating triptolide's structure may also discriminate between the two pathways. For cell viability assays, HeLa cells were incubated with 0, 0.1, 1, or 10 μM of each analog or triptolide for 24 hours and then counted using trypan blue dye exclusion. […] NFκB transcriptional inhibition was measured using the κB-luciferase assay as previously described following 5 hours of incubation with each analog (0-10 μM) and TNF-α addition.
A triple κB promoter-Luciferase reporter construct was a gift of Sankar Ghosh (Yale University). HeLa cells were plated at a density of 2×10^5 in 12 well plates and transfected with 100 ng of the κB-Luciferase plasmid plus Lipofectamine 2000 (Invitrogen) for 24 hours before the addition of 100 nM triptolide for one hour and 15 ng/ml of recombinant (human) TNF-α (Roche) for an additional five hours. The transfection efficiency of HeLa was determined to be 80-90%, and all samples were normalized to protein concentration. Luciferase assays were performed using the Firefly luciferase kit as per manufacturer's protocol (Promega) and results obtained on the Wallac Victor2 1420 Multilabel Counter (Perkin Elmer).

[3] = test system: Pkd1^−/− murine kidney epithelial cells; assay: Growth, p21 and active caspase-3 in Pkd1^−/− cells; type: cell-based
Procedure: Calcium response to triptolide was, thus, shown to be dependent on polycystin-2. The biological response to calcium flux was next assessed in the murine Pkd1^−/− cell line, by adding 100 nM triptolide to the cultured cells and observing cell growth over time. Within the first 24 hours of culture, a minimal number of detached cells was observed. […] In the absence of triptolide, this cell line underwent a population doubling every 48 hours. […] It is possible that additional signaling pathways are activated by triptolide when Pkd1 is expressed. […] Therefore, Applicants assessed whether the inhibition of proliferation observed was due to p21 re-expression upon triptolide treatment.
The Pkd1^−/−(MN24), Pkd2^+/−(3B3) and Pkd2^−/−(2D2) murine cell lines were derived from knockout and transgenic mice as previously reported (Wu, et al., 1998, Cell, 93:177-88; Wu, et al., 2000, Nat. Genet, 24:75-8; Wu, et al., 2002, Hum Mol Genet, 11:1845-54). The PKD2-Rex cell line was made by stable integration of untagged PKD2 under hygromycin selection. Antibodies used included polycystin-2 (Cai, et al. 1999, J Biol Chem, 274:28557-65), cleaved (active) caspase-3 (Cell Signaling Technology) and p21 (BD Biosciences). Triptolide was obtained from Sinobest Inc. (China) and purity was 99% as determined by HPLC. DMSO was used to dissolve triptolide and was then directly added into culture media for all experiments. Triptolide was tritiated by Sib Tech, Inc. (Newington, Conn.) and resuspended in ethanol to a specific activity of 4-6 Ci/mmol. Purity was >95% as confirmed by RP-HPLC on a Hypersil C18 column and by TLC on both C18 and silica gel.
Total cell lysates (0.5% Triton X-100, 50 mM Tris pH 7.4, 150 mM NaCl, […]) were prepared for Western blot analysis and samples were run out by SDS-PAGE as per manufacturers' protocols. Brightfield images of cells were taken using a 10× or 40× objective. Confocal microscopy (40×) was used for immunofluorescence imaging of polycystin-2.

CC(C)[C@]12O[C@H]1[C@@H]1O[C@]13[C@]1(O[C@H]1C[C@H]1C4=C(CC[C@@]13C)C(=O)OC4)[C@@H]2O [triptolide, Triptolide]
luciferase activity induction (NFκB transactivation [1]): > 20 fold | dose that did not adversely affect health (adult animal): greater than 0.15 mg/kg/day | TNF-α driven transcriptional activity of NFκB (NFκB transactivation [2]; 10 nM, 6 hours): did not inhibit | TNF-α driven transcriptional activity of NFκB (NFκB transactivation [2]; 25 nM, 6 hours): did not inhibit | suppression of NFκB transcriptional activity (NFκB transactivation [2]; 50 nM, 6 hours): 20% | inhibition at 0.1 µM (NFκB transactivation [2]; 0.1 μM, 5 hours with TNF-α, analog study): > 60% | inhibition of NFκB transcriptional activity (NFκB transactivation [2]; 100 nM, 6 hours, average): 60% | NFκB transactivation (NFκB transactivation [2]; 100 nM, GFP vector, NES-PV-GFP or NLS-PV-GFP co-transfected): retained the ability to suppress NFκB transactivation in all experimental conditions | TNF-α induced NFκB transactivation (NFκB transactivation [2]; 100 nM, presence and absence of calcium): effectively inhibited | NFκB transcriptional activity at higher concentration (NFκB transactivation [2]; 1 or 10 μM, 5 hours): attenuated further | active caspase-3 (western blot) ([3]; 100 nM time course): failed to implicate triptolide induced apoptosis | p21 expression (western blot) ([3]; 100 nM, 96 hour time course): upregulated | cell growth ([3]; 100 nM, over 96 hours): growth arrested
